Values joined by “and” are separate entries in the source; they are usually repeats but may differ in a detail not shown here. Equal values may be shown once. Read-outs that look alike come from different tables or passages of the source.
What was measured:
[1] = Direct UV photolytic degradation of single contaminants in deionized water (collimated beam MP Hg lamp, HPLC/MS/MS); assay type: physicochemical; conditions: for UV dose for 90% degradation: polychromatic UV 200-400 nm; for pH dependence of rate constant (k) for photolytic degradation: FIG. 21 and FIG. 23, in words; for Optimal pH for photodegradation: UV direct photolysis
Method: Solutions of tested contaminants were prepared by dissolving one or more contaminant in 150 ml deionized water (DI) at a concentration of 1 mg/l for each contaminant. The solution was then placed into an open 90×50 mm crystallization dish. […] No. 7830-61, from Ace Glass Inc.) housed in a bench scale collimated beam apparatus. […] 0.5 ml samples were removed from the irradiated solution at selected time intervals in order to measure the concentration of the remaining contaminant. Samples were measured in a 1100-Finnigan LCQ HPLC/MS/MS (high performance liquid chromatography/tandem mass spectrometry) apparatus (Agilent), in order to obtain a chromatogram for the sample. The concentration was expressed as the area of the peak observed in the HPLC/MS/MS chromatogram. The degradation kinetics were expressed as a logarithm of the ratio of the concentration (CH) remaining following a dose H of irradiation to initial concentration (C0). Such a logarithm decreased in a linear manner as a function of the dose, as follows: […] The data were fitted using a linear regression approach (with R^2>0.9) resulting in pseudo-first order reaction kinetics which reflect the difference in photodegradation between samples.

[2] = cited from earlier work
[3] = Direct UV photolytic degradation of SMX in synthetic effluent water; assay type: physicochemical
Method: Solutions of tested contaminants were prepared by dissolving one or more contaminant in 150 ml deionized water (DI) at a concentration of 1 mg/l for each contaminant. The solution was then placed into an open 90×50 mm crystallization dish.
The aqueous solution was stirred continuously for the duration of the experiment, and irradiated using a 0.45 kW polychromatic medium-pressure (MP) Hg vapor lamp (Ace-Hanovia Lamp Cat. No. 7830-61, from Ace Glass Inc.) housed in a bench scale collimated beam apparatus. The polychromatic irradiation was at ultraviolet (UV) wavelengths in a range of 200-400 nm.
0.5 ml samples were removed from the irradiated solution at selected time intervals in order to measure the concentration of the remaining contaminant. Samples were measured in a 1100-Finnigan LCQ HPLC/MS/MS (high performance liquid chromatography/tandem mass spectrometry) apparatus (Agilent), in order to obtain a chromatogram for the sample. The concentration was expressed as the area of the peak observed in the HPLC/MS/MS chromatogram.
The data were fitted using a linear regression approach (with R^2>0.9) resulting in pseudo-first order reaction kinetics which reflect the difference in photodegradation between samples. The constant k (cm^2/mJ), the degradation rate fluence-based constant, was calculated as the negative slope obtained when the degradation was plotted logarithmically as described hereinabove.
The UV dose required for 90% degradation of the tested contaminants was calculated using the obtained value for k, by inserting the appropriate numbers into the above equation: […]
Synthetic wastewater was prepared as described in Seo et al. and diluted with deionized water to obtain a 70% transmittance at 254 nm, which is typical for wastewater effluents treated by UV irradiation.

[4] = cited from earlier work; remark: listed apart in the source
[5] = 5 mg/L hydrogen peroxide, UV fluence of 50 mJ/cm^2; cited from earlier work
[6] = UV fluence of 1000 mJ/cm^2, pH 7.5, 254 nm; cited from earlier work
[7] = cited from earlier work; remark: listed apart in the source
[8] = least favorable tested pH vs optimal pH, deionized water

Row | Reduction in UV dose [1, 8] | UV dose for 90% degradation ([1]; pH 6, deionized water, 1 mg/l) | UV dose for 90% degradation ([1]; pH 7, deionized water, 1 mg/l) | UV dose for 90% degradation ([1]; pH 5, deionized water, 1 mg/l) | SMILES | pH dependence of photolytic degradation ([1]; deionized water, in words) | pH dependence of rate constant (k) for photolytic degradation ([1]; deionized water) | Relevant pKa [2] | other results
1 | 33.4% | 2875 mJ/cm^2 | 2875 mJ/cm^2 |  | CC1(C)S[C@@H]2[C@H](NC(=O)[C@H](N)c3ccccc3)C(=O)N2[C@H]1C(=O)O [AMP, ampicillin] | more rapid at a pH of 8 than at a pH of 7 or 6 |  |  | UV dose for 90% degradation ([1]; pH 8, deionized water, 1 mg/l): 1916 mJ/cm2
2 | 36.4% | 3285 mJ/cm^2 | 2090 mJ/cm^2 |  | CC1(C)S[C@@H]2[C@H](NC(=O)[C@H](N)c3ccc(O)cc3)C(=O)N2[C@H]1C(=O)O [AMX, Amoxicillin] | more rapid at a pH of 7 or 8 than at a pH of 6 | higher at a relatively high pH (pH 7 or 8) | 6.9 | UV dose for 90% degradation ([1]; pH 8, deionized water, 1 mg/l): 2090 mJ/cm2
3 | 80.7% | 742 mJ/cm^2 | 403 mJ/cm^2 | 2091 mJ/cm^2 | O=C(O)c1cn(C2CC2)c2cc(N3CCNCC3)c(F)cc2c1=O [CPR, Ciprofloxacin] | more rapid at a pH of 7 than at a pH of 5 | higher at a pH of 7 than at a pH of 5 |  | Degradation in mixture (30 min, pH 5): 26%; Degradation in mixture (60 min): 96%; Degradation in mixture without change of pH, by extrapolation (60 min, pH 5): 53%
4 | 66.6% | 23000 mJ/cm^2 | 11500 mJ/cm^2 |  | NC(=O)N1c2ccccc2C=Cc2ccccc21 [CPZ, Carbamazepine] | more rapid at a pH of 8 than at a pH of 6 |  | 13 | UV dose for 90% degradation ([1]; pH 8, deionized water, 1 mg/l): 7667 mJ/cm2
5 | 68.2% | 2300 mJ/cm^2 | 1045 mJ/cm^2 | 3286 mJ/cm^2 | CCN1CCN(c2cc3c(cc2F)c(=O)c(C(=O)O)cn3C2CC2)CC1 [ENR, enrofloxacin] | more rapid at a pH of 7 than at a pH of 5 |  | 5.94 | 
6 | 84.7% | 2091 mJ/cm^2 | 697 mJ/cm^2 | 4600 mJ/cm^2 | CCn1cc(C(=O)O)c(=O)c2cc(F)c(N3CCNCC3)cc21 [NOR, norfloxacin] | more rapid at a pH of 7 than at a pH of 5 | higher at a relatively high pH (pH 7 or 8) | 8.4 | 
7 |  | 2556 mJ/cm^2 | 1643 mJ/cm^2 | 5750 mJ/cm^2 | CN(C)[C@@H]1C(O)=C(C(N)=O)C(=O)[C@@]2(O)C(O)=C3C(=O)c4c(O)cccc4[C@@](C)(O)[C@H]3[C@H](O)[C@@H]12 [OTC, oxytetracycline] | more rapid at a pH of 7 than at a pH of 5 | higher at a pH of 7 than at a pH of 5 |  | Degradation in mixture (30 min, pH 5): 54%; Degradation in mixture (60 min): 91%; Degradation in mixture without change of pH, by extrapolation (60 min, pH 5): 81%
8 |  |  |  |  | CC(COc1ccc(Oc2ccccc2)cc1)Oc1ccccn1 (stereo not shown) [PRX, pyriproxyfen] |  |  |  | pH dependence of photolytic degradation ([1]; 1 mg/l): more rapid at a pH of 5 than at a pH of 3; UV dose for 90% removal ([1]; pH 3, deionized water): 2555.6 mJ/cm^2; UV dose for 90% removal ([1]; pH 4, deionized water): 1352.9 mJ/cm^2; UV dose for 90% removal ([1]; pH 5, deionized water): 1277.8 mJ/cm^2; Reduction in UV dose ([1]; tested pH 3-5, deionized water): 50%
9 | 58.3% | 3300 mJ/cm^2 | 5750 mJ/cm^2 | 2400 mJ/cm^2 | COc1cc(NS(=O)(=O)c2ccc(N)cc2)nc(OC)n1 [SMT, sulfadimethoxine] | more rapid at a pH of 5 than at a pH of 7 | higher at a relatively low pH (pH 5) | 6.08 | Optimal pH for photodegradation [1]: 5
10 | 73.4% | 590 mJ/cm^2 |  |  | Cc1cc(NS(=O)(=O)c2ccc(N)cc2)no1 [SMX, sulfamethoxazole] | more rapid at a pH of 5 than at a pH of 7 | higher at a pH of 5 than at a pH of 7 |  | UV dose for 90% degradation ([3]; pH 7, synthetic effluent water): 1643 mJ/cm^2; Reduction in UV dose ([3]; pH 7 vs pH 5, synthetic effluent water): 80.8%; pH dependence of photolytic degradation ([3]; synthetic effluent water, in words): more rapid at a pH of 5 than at a pH of 7; Optimal pH for photodegradation [1]: 5; Irradiation time for 90% degradation ([1]; pH 5, deionized water): approximately 4 minutes; Irradiation time for 90% degradation ([1]; pH 7, deionized water): approximately 12 minutes; Degradation in mixture (30 min, pH 5): 98.4%
11 |  |  |  |  | Oc1nc(Cl)c(Cl)cc1Cl [TCP, 3,5,6-trichloro-2-pyridinol] |  |  |  | Degradation of TCP via direct photolytic process ([4]; UV fluence of 50 mJ/cm^2): approximately 40%; Photodegradation rate, constant maximum value ([4]; pH 5): 6.40×10^−3 cm^2 mJ^−1; Degradation of TCP via indirect photolytic process [5]: 50%
12 | 95% and 95.4% | 23000 mJ/cm^2 | 3833 mJ/cm^2 |  | COc1cc(Cc2cnc(N)nc2N)cc(OC)c1OC [TMP, Trimethoprim] | more rapid at a pH of 8 than at a pH of 6 | higher at a relatively high pH (pH 7 or 8) |  | Enhancement of photolysis rate ([1]; changing the pH value from 6 to 8, deionized water): more than 12 fold; UV dose for 90% degradation ([1]; pH 8, deionized water, 1 mg/l): 1770 mJ/cm2
13 |  |  |  |  | CCc1cccc(C)c1N(C(=O)CCl)C(C)COC (stereo not shown) [metolachlor] |  |  |  | Fraction degraded [6]: Approximately half
14 |  |  |  |  | Cc1ncc([N+](=O)[O-])n1CCO [metronidazole] |  |  | 2.4 | Dependency of direct UV photolysis on solution pH ([7]; pH 3-9.5): no significant dependency; Removal efficiency of direct photolysis ([7]; pH 6): low removal efficiency

Row | SMILES | Reduction in UV dose [1, 8] | UV dose for 90% degradation ([1]; pH 6, deionized water, 1 mg/l) | UV dose for 90% degradation ([1]; pH 7, deionized water, 1 mg/l) | UV dose for 90% degradation ([1]; pH 5, deionized water, 1 mg/l) | pH dependence of photolytic degradation ([1]; deionized water, in words) | pH dependence of rate constant (k) for photolytic degradation ([1]; deionized water) | Relevant pKa [2] | other results
15 | CN(C)[C@@H]1C(O)=C(C(N)=O)C(=O)[C@@]2(O)C(O)=C3C(=O)c4c(O)cccc4[C@@](C)(O)[C@H]3C[C@@H]12 [TC, Tetracycline] |  | 2300 mJ/cm^2 | 1200 mJ/cm^2 | 8000 mJ/cm^2 | more rapid at a pH of 7 than at a pH of 5 | higher at a relatively high pH (pH 7 or 8) |  | 

From US20110163045A1, “METHOD AND SYSTEM FOR TREATING CONTAMINATED WATER” (Ramot at Tel-Aviv University Ltd., priority 2008, published 2011)
